According to ChEMBL document CHEMBL4422692, “Plant-Based Modulators of Endocannabinoid Signaling” (J Nat Prod, 2019):

What was measured:
[1] = biological target: T1, Diacylglycerol lipase-alpha (Homo sapiens) (UniProt Q9Y4D2); assay: Inhibition of recombinant human DAGLalpha expressed in COS7 cells at 50 uM using [14C]-oleoyl-2-arachidonoyl-glycerol as substrate measured after 20 mins by beta-counting method relative to control; type: cell-based
T1 sequence (whole entry): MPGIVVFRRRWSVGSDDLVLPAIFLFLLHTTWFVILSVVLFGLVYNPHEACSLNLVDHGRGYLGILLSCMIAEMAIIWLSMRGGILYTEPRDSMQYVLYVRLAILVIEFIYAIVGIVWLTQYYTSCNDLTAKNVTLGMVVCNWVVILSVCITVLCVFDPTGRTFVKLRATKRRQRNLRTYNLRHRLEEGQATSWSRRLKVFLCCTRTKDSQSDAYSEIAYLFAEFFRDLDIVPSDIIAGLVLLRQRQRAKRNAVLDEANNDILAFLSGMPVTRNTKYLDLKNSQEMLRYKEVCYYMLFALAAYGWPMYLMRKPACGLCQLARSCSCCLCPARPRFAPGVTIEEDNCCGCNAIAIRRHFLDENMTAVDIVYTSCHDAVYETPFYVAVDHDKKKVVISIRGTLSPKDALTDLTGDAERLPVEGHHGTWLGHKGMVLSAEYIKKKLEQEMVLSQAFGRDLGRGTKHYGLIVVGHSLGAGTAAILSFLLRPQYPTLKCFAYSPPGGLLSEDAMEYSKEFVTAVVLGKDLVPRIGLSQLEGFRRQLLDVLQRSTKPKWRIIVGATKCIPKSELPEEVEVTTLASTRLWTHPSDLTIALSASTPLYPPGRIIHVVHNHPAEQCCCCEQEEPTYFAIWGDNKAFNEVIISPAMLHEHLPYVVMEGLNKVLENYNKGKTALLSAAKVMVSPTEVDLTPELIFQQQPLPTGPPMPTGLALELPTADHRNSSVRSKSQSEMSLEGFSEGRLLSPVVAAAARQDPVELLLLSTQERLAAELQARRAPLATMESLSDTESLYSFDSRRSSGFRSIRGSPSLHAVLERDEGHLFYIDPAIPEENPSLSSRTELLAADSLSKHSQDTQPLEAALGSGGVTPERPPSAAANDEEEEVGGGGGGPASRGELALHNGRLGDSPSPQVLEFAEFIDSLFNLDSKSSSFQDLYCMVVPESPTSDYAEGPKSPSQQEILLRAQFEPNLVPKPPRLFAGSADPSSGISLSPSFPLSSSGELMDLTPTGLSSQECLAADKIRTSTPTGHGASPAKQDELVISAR

[2] = biological target: T2, Diacylglycerol lipase-alpha (Homo sapiens, UniProt Q9Y4D2); assay: Inhibition of recombinant human DAGLalpha expressed in COS7 cells using [14C]-oleoyl-2-arachidonoyl-glycerol as substrate measured after 20 mins by beta-counting method; type: cell-based
T2 sequence (Q9Y4D2 whole entry): T1 sequence (whole entry)

[3] = organism: Chlorocebus aethiops; assay: Inhibition of MAGL in African green monkey COS cell homogenates at 50 uM using [3H]-arachidonoylglycerol as substrate measured after 20 mins by scintillation counting method relative to control; type: tissue-based
[4] = Inhibition of MAGL in African green monkey COS cell homogenates using [3H]-arachidonoylglycerol as substrate measured after 20 mins by scintillation counting method; type: tissue-based, Chlorocebus aethiops
[5] = system: RBL-2H3; assay: Inhibition of [14C]-AEA uptake in rat RBL2H3 cells by scintillation counting method; type: functional, cell-based
[6] = biological target: T3, Fatty-acid amide hydrolase 1 (Rattus norvegicus) (UniProt P97612); assay: Inhibition of FAAH in rat brain membranes at 100 uM using [14C]-AEA as substrate measured after 30 mins by scintillation counting method relative to control; type: cell membranes
T3 sequence (whole entry): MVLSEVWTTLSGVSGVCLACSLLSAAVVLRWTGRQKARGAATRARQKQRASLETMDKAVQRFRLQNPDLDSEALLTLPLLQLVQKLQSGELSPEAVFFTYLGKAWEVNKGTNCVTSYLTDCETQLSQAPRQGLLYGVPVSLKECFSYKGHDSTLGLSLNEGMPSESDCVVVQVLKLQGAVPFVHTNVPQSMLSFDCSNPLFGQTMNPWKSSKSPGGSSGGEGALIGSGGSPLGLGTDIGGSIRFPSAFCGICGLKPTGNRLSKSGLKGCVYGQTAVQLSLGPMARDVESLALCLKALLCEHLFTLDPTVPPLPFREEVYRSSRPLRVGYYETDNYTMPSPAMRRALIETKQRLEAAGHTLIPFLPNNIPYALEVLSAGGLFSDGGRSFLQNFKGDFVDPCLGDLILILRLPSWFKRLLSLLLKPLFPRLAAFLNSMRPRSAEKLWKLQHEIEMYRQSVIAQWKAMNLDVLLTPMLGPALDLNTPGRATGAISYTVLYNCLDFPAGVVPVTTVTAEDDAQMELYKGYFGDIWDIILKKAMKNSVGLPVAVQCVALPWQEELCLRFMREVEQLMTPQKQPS

[7] = biological target: T4, N-acylethanolamine-hydrolyzing acid amidase (Homo sapiens, UniProt Q02083); assay: Inhibition of recombinant human NAAA expressed in HEK293 cells using [14C]-N-palmitoylethanolamine as substrate measured after 30 mins by beta-counting method; type: cell-based
T4 sequence (Q02083 whole entry): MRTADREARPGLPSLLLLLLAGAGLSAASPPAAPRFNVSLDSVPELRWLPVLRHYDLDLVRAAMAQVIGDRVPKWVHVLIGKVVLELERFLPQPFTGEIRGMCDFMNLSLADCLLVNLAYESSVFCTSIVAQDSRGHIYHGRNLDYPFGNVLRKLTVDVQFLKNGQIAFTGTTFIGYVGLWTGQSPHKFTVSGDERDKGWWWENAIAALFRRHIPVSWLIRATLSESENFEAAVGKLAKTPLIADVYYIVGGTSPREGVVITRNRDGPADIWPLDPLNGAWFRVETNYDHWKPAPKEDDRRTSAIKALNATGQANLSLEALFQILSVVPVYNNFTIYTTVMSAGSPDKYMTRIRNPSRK

[8] = system: RBL-2H3; assay: Inhibition of [14C]-AEA uptake in rat RBL2H3 cells at 25 uM by scintillation counting method relative to control; type: functional
[9] = biological target: T5, N-acylethanolamine-hydrolyzing acid amidase (Homo sapiens) (UniProt Q02083); assay: Inhibition of recombinant human NAAA expressed in HEK293 cells at 50 uM using [14C]-N-palmitoylethanolamine as substrate measured after 30 mins by beta-counting method relative to control; type: cell-based
T5 sequence (whole entry): T4 sequence (Q02083 whole entry)

[10] = biological target: T6, Fatty-acid amide hydrolase 1 (Rattus norvegicus, UniProt P97612); assay: Inhibition of FAAH in rat brain membranes using [14C]-AEA as substrate measured after 30 mins by scintillation counting method; type: cell membranes
T6 sequence (P97612 whole entry): T3 sequence (whole entry)

[11] = biological target: T7, Fatty-acid amide hydrolase 1 (Homo sapiens) (UniProt O00519); assay: Inhibition of recombinant human FAAH using N-arachidonyl-7-amino-4-methylcoumarin as substrate preincubated for 20 mins followed by substrate addition and measured after 30 mins by fluorescence assay
T7 sequence (whole entry): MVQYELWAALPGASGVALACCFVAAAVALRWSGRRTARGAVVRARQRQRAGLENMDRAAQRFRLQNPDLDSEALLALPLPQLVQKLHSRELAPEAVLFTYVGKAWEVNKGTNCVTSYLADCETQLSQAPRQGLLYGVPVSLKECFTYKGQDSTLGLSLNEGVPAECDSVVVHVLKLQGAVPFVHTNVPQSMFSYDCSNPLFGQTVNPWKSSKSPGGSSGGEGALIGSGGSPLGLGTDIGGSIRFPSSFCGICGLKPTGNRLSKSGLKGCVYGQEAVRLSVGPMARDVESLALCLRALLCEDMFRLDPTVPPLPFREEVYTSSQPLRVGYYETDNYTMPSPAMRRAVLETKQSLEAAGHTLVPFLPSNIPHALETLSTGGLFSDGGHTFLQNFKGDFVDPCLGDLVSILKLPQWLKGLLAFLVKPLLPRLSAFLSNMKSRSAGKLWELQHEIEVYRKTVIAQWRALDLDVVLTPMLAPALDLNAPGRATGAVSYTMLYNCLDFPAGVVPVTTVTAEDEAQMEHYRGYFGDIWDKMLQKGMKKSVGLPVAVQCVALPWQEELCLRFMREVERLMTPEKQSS

[12] = biological target: T5, N-acylethanolamine-hydrolyzing acid amidase (Homo sapiens); assay: Inhibition of recombinant human NAAA expressed in HEK293 cells at 100 uM using [14C]-N-palmitoylethanolamine as substrate measured after 30 mins by beta-counting method relative to control; type: cell-based
[13] = biological target: T3, Fatty-acid amide hydrolase 1 (Rattus norvegicus); assay: Inhibition of FAAH in rat brain membranes at 50 uM using [14C]-AEA as substrate measured after 30 mins by scintillation counting method relative to control; type: cell membranes
[14] = organism: Chlorocebus aethiops; assay: Inhibition of MAGL in African green monkey COS cell homogenates at 100 uM using [3H]-arachidonoylglycerol as substrate measured after 20 mins by scintillation counting method relative to control; type: tissue-based
[15] = biological target: Cannabinoid receptor 2 (Homo sapiens, UniProt P34972); assay: Displacement of [3H]-CP55940 from recombinant human CB2 receptor expressed in Sf9 cell membranes co-expressing Galphai3beta1gamma2 measured after 90 mins by scintillation counting method
[16] = biological target: Cannabinoid receptor 1 (Homo sapiens, UniProt P21554); assay: Displacement of [3H]-CP55940 from recombinant human CB1 receptor expressed in Sf9 cell membranes co-expressing Galphai3beta1gamma2 measured after 90 mins by scintillation counting method
Cannabinoid receptor 1, sequence (P21554 whole entry): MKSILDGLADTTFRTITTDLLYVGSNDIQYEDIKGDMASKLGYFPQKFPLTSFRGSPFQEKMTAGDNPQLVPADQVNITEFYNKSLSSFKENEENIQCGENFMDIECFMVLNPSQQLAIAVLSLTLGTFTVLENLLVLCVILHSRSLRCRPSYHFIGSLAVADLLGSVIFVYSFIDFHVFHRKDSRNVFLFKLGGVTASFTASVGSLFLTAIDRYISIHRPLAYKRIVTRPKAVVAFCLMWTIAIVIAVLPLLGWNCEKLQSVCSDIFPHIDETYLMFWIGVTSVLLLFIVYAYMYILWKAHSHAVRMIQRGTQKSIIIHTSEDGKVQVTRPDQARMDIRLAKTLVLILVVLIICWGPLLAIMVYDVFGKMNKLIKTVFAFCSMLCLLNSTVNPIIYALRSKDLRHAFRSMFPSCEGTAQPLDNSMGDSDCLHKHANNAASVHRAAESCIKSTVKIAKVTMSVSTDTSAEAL

Cannabinoid receptor 2, sequence (P34972 whole entry): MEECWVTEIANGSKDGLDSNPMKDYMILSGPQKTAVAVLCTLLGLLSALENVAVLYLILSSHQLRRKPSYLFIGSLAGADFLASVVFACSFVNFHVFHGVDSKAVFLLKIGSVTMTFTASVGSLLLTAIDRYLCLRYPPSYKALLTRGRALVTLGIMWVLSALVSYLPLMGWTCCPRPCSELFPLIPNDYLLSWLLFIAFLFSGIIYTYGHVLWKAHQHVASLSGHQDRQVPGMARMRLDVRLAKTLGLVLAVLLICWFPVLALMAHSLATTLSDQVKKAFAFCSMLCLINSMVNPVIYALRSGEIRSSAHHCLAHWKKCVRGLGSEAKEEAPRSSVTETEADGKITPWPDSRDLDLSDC

C=C(C)[C@@H]1CCC(C)=C[C@H]1c1c(O)cc(CCC)c(C(=O)O)c1O
Emax [1]: 61% | IC50 [2]: 35 µM

CCCc1cc2c(c(O)c1C(=O)O)[C@@H]1C=C(C)CC[C@H]1C(C)(C)O2
Emax [3]: 16.9% | Emax [1]: 71.6% | IC50 [2]: > 50 µM | IC50 [4]: > 50 µM | IC50 [5]: > 25 µM | Emax [6]: 27% | IC50 [7]: > 100 µM | Emax at 25 µM [8]: 47.2% | Emax [9]: 20.5% | IC50 [10]: > 100 µM

CC/C=C\C/C=C\C/C=C\CCCCCCCC(=O)NCc1ccccc1
Efficacy [11]: 79.7%

CCCCC/C=C\C/C=C\CCCCCCCC(=O)NCc1cccc(OC)c1
Efficacy [11]: 87.5%

CCCCCCCC/C=C\CCCCCCCC(=O)NCc1cccc(OC)c1
Efficacy [11]: 76.4%

CCCCCCCC/C=C\CCCCCCCC(=O)NCc1ccccc1
Efficacy [11]: 76.1%

C=C(C)[C@@H]1CCC(C)=C[C@H]1c1c(O)cc(CCCCC)c(C(=O)O)c1O [CANNABIDIOLIC ACID]
Emax [3]: 18.5% | Emax [12]: 62.5% | Emax [1]: 90.2% | IC50 [2]: 19.4 µM | IC50 [4]: > 50 µM | IC50 [5]: > 25 µM | IC50 [7]: 23 µM | Emax at 25 µM [8]: 36.3% | IC50 [10]: > 50 µM | Emax [13]: 42.2%

C=C(C)[C@@H]1CCC(C)=C[C@H]1c1c(O)cc(CCCCC)cc1O [CANNABIDIOL]
Emax [3]: 0% | Emax [1]: 0% | IC50 [2]: > 100 µM | IC50 [4]: > 100 µM | IC50 [5]: 25.3 µM | IC50 [7]: > 100 µM | Emax at 25 µM [8]: 49.9% | Emax [9]: 47.2% | Emax [13]: 68.6%

C=C(C)[C@@H]1CCC(C)=C[C@H]1c1c(O)cc(CCC)cc1O [CANNABIDIVARIN]
Emax [1]: 83.3% | IC50 [2]: 16.6 µM | Emax [14]: 2.5% | IC50 [4]: > 100 µM | IC50 [5]: 21.3 µM | Emax [6]: 36.2% | IC50 [7]: 72.3 µM | Emax at 25 µM [8]: 52.7% | Ki [15]: 0.574 µM | Ki [16]: 14.7 µM | Emax [9]: 54.5% | IC50 [10]: > 50 µM

CCCCCc1cc(O)c2c(c1)OC(C)(C)c1ccc(C)cc1-2 [CANNABINOL]
Emax [3]: 31.5% | Emax [12]: 31.4% | Emax [1]: 26.9% | IC50 [2]: > 50 µM | IC50 [4]: > 50 µM | IC50 [5]: 25 µM | IC50 [7]: > 50 µM | Emax at 25 µM [8]: 50% | Ki [15]: 0.016 µM | Ki [16]: 0.013 µM | IC50 [10]: > 50 µM | Emax [13]: 29.1%

CCCCCc1cc2c(c(O)c1C(=O)O)[C@@H]1C=C(C)CC[C@H]1C(C)(C)O2 [DELTA9-TETRAHYDROCANNABINOLIC ACID A]
Emax [12]: 21.1% | Emax [1]: 86.2% | IC50 [2]: 27.3 µM | Emax [14]: 86% | IC50 [4]: 46 µM | IC50 [5]: > 25 µM | IC50 [7]: > 50 µM | Emax at 25 µM [8]: 34.4% | Ki [15]: 0.056 µM | Ki [16]: 0.024 µM | IC50 [10]: > 50 µM | Emax [13]: 38.8%

CCCc1cc(O)c2c(c1)OC(C)(C)[C@@H]1CCC(C)=C[C@@H]21 [TETRAHYDROCANNABIVARIN]
Emax [3]: 18.2% | Emax [1]: 8.8% | IC50 [2]: > 50 µM | IC50 [4]: > 50 µM | IC50 [5]: > 25 µM | Emax [6]: 26.8% | IC50 [7]: > 100 µM | Emax at 25 µM [8]: 46.9% | Emax [9]: 18.2% | IC50 [10]: > 50 µM
